Laboratory results reported in PMC12153356, “An antisense oligomer conjugate with unpredicted bactericidal activity against Fusobacterium nucleatum” (mBio, 2025).
Square brackets hold non-standard residues; d marks the D form. Peptide text beside a SMILES is read from it. * marks the point of attachment. 5TAMRA = CN(C)c1ccc2c(c1)Oc1cc(N(C)C)ccc1C21OC(=O)c2cc(C(=O)*)ccc21; Ahx = NCCCCCC(=O)O; βAla = NCCC(=O)O

Tested on: F. nucleatum subsp. nucleatum ATCC 23726 (FNN23)
Experiment: CPP-TAMRA uptake by confocal laser scanning microscopy (CLSM)
Assay type: cell-based, Fusobacterium nucleatum subsp. nucleatum ATCC 23726
Conditions: 5 µM CPP-TAMRA, FNN23 10^8 CFU/mL in MHB, 37°C, 10, 30 and 60 min, 100 cells from four images, cytoplasmic signal
Source text: To investigate the efficiency of different cell-penetrating peptides, we excluded a flow cytometry approach to quantify penetration efficiency because upon cell fixation, CPPs were reported to bind to cell membranes and remain attached even after multiple washes, which would result in a false-positive penetration signal in flow cytometry ([118]). Thus, we opted for a microscopy-based investigation with lower throughput but discrimination potential between membrane-associated and cytosolic signals. CPPs were coupled to the fluorophore 5(6)-carboxytetramethylrhodamine (TAMRA) by Peps4LS GmbH, and 200 µM stocks were prepared in house. […] The emission was detected at 685–795 nm for FM 4–64 and 570–620 nm for TAMRA. CLSM images were analyzed using ImageJ. To quantify CPP uptake, 100 cells were chosen out of four images per condition using the bright field image and analyzed for cytosolic TAMRA signal by excluding TAMRA-negative cells and TAMRA signal co-localized with the FM 4–64 signal.

In the case of `CN(C)c1ccc2c(c1)Oc1cc(N(C)C)ccc1C21OC(=O)c2cc(C(=O)N[C@@H](CCCNC(=N)N)C(=O)NCCCCCC(=O)N[C@@H](CCCNC(=N)N)C(=O)N[C@@H](CCCNC(=N)N)C(=O)NCCCCCC(=O)N[C@@H](CCCNC(=N)N)C(=O)N[C@@H](CCCNC(=N)N)C(=O)NCCCCCC(=O)N[C@@H](CCCNC(=N)N)C(=O)N[C@@H](CCCNC(=N)N)C(=O)NCCCCCC(=O)N[C@@H](CCCNC(=N)N)C(=O)NCCCCCC(=O)NCCC(=O)O)ccc21` [(RXR)4XB-TAMRA] (5TAMRA-R[Ahx]RR[Ahx]RR[Ahx]RR[Ahx]R[Ahx][βAla]-OH), the “TAMRA-positive cells (uptake efficiency)” value is reported as 100%.
